Values of other authors in patent US20100151037A1, “METHOD FOR THE PREPARATION OF NANOPARTICLES CONTAINING A POORLY WATER-SOLUBLE […] ACTIVE COMPOUND” (priority 2008, published 2010).

Details: dry powder form

COC1=C(OC)C(=O)C(C/C=C(\C)CC/C=C(\C)CC/C=C(\C)CC/C=C(\C)CC/C=C(\C)CC/C=C(\C)CC/C=C(\C)CC/C=C(\C)CC/C=C(\C)CCC=C(C)C)=C(C)C1=O [Coenzyme Q10]
bioavailability: as low as three percent
